# Tests used:
# [1] = test system: wild buckwheat (Polygonum convolvulus); test: Postemergence herbicidal activity; format: in vivo; details: for pest or weed control at 125 ppm / pest or weed control at 250 ppm: Fallopia convolvulus, post-emergence, 336 h, Table 1, visual, after 2 weeks, read-out: Post-emergent % Control POLCO; for pest or weed control at 125 ppm: rate 125 ppm; for Post-emergent Evaluation - % control POLCO: Table 5
# Method in brief: (§1)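 Greenhouse plants at first or second true leaf stage sprayed to coverage with compound in acetone/water/isopropanol/DMSO/crop oil/surfactant mixture; 1 ppm ≈ 1 g/Ha. Plants sub-irrigated afterward. Injury scored visually after 2 weeks versus untreated plants, 0 (none) to 100% (complete kill).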
# [2] = test system: yellow nutsedge (Cyperus esculentus); test: Postemergence herbicidal activity; format: in vivo; details: Table 3; weeds in rice; rate 250 ppm
# Method in brief: as §1
# [3] = test system: cocklebur (Xanthium strumarium); test: Postemergence herbicidal activity; format: in vivo; details: for pest or weed control at 125 ppm / pest or weed control at 250 ppm: Xanthium strumarium, post-emergence, 336 h, Table 1, visual, after 2 weeks, read-out: Post-emergent % Control XANST; for Post-emergent Evaluation - % control XANST: Table 4
# Method in brief: as §1
# [4] = test system: barnyardgrass (Echinochloa crus-galli); test: Postemergence herbicidal activity; format: in vivo; details: Table 3; weeds in rice; rate 250 ppm
# Method in brief: as §1
# [5] = test system: chickweed (Stellaria media); test: Postemergence herbicidal activity; format: in vivo; details: for pest or weed control at 125 ppm / pest or weed control at 250 ppm: Stellaria media, post-emergence, 336 h, Table 1, visual, after 2 weeks, read-out: Post-emergent % Control STEME; for pest or weed control at 125 ppm: rate 125 ppm; for Post-emergent Evaluation - % control STEME: Table 5
# Method in brief: as §1
# rice (Oryza sativa) = test: Postemergence herbicidal activity, selectivity to rice; format: in vivo; details: Table 3; crop (rice); rate 250 ppm
# Procedure: (§2) Seeds of the desired test plant species were planted in Grace-Sierra MetroMix® 306 planting mixture, which typically has a pH of 6.0 to 6.8 and an organic matter content of about 30 percent, in plastic pots with a surface area of 64 square centimeters. When required to ensure good germination and healthy plants, a fungicide treatment and/or other chemical or physical treatment was applied. The plants were grown for 7-21 days in a greenhouse with an approximate 15 hr photoperiod which was maintained at about 23-29° C. during the day and 22-28° C. during the night. Nutrients and water were added on a regular basis and supplemental lighting was provided with overhead metal halide 1000-Watt lamps as necessary. The plants were employed for testing when they reached the first or second true leaf stage.
# (§3) A weighed amount, determined by the highest rate to be tested, of each test compound was placed in a 20 mL glass vial and was dissolved in 4 mL of a 97:3 v/v (volume/volume) mixture of acetone and dimethyl sulfoxide (DMSO) to obtain concentrated stock solutions. […] The concentrated stock solutions obtained were diluted with an aqueous mixture containing acetone, water, isopropyl alcohol, DMSO, Atplus 411F crop oil concentrate, and Triton X-155 surfactant in a 48.5:39:10:1.5:1.0:0.02 v/v ratio to obtain spray solutions of known concentration. The solutions containing the highest concentration to be tested were prepared by diluting 2 mL aliquots of the stock solution with 13 mL of the mixture and lower concentrations were prepared by serial dilution of the stock solution. […]
# (§4) The treated plants and control plants were placed in a greenhouse as described above and watered by sub-irrigation to prevent wash-off of the test compounds. After 2 weeks the condition of the test plants as compared with that of the untreated plants was determined visually and scored on a scale of 0 to 100 percent where 0 corresponds to no injury and 100 corresponds to complete kill.
# [6] = test system: morningglory (Ipomoea hederacea); test: Preemergence herbicidal activity; format: in vivo; details: Ipomoea, 504 h, Table 6 (headed Post-emergent; text: preemergence), after 3 weeks, read-out: % Control IPOHE; for pest or weed control at 560 ppm: rate 560 ppm; for pest or weed control at 140 ppm: rate 140 ppm; for pest or weed control at 280 ppm: rate 280 ppm
# Method in brief: (§5)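 Visual injury score, 0-100 percent (0 = no injury, 100 = complete kill or no germination), taken 3 weeks after treatment relative to untreated plants. Test solutions in water/Tween 155 with acetone/DMSO carrier were sprayed onto the soil of freshly seeded pots. Greenhouse, 15 hr light.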
# [7] = test system: pigweed (Amaranthus retroflexus); test: Preemergence herbicidal activity; format: in vivo; details: Amaranthus retroflexus, 504 h, Table 6 (headed Post-emergent; text: preemergence), after 3 weeks, read-out: % Control AMARE; for pest or weed control at 560 ppm: rate 560 ppm; for pest or weed control at 140 ppm: rate 140 ppm; for pest or weed control at 280 ppm: rate 280 ppm
# Method in brief: as §5
# [8] = test system: velvetleaf (Abutilon theophrasti); test: Preemergence herbicidal activity; format: in vivo; details: Abutilon theophrasti, 504 h, Table 6 (headed Post-emergent; text: preemergence), after 3 weeks, read-out: % Control ABUTH; for pest or weed control at 560 ppm: rate 560 ppm; for pest or weed control at 140 ppm: rate 140 ppm; for pest or weed control at 280 ppm: rate 280 ppm
# Method in brief: as §5
# corn (Zea mays) = test: Postemergence herbicidal activity, selectivity to corn; format: in vivo; details: Table 4, crop (corn)
# Procedure: as §2, §3, §4
# [9] = test system: velvetleaf (Abutillon theophrasti); test: Postemergence herbicidal activity; format: in vivo; details: Table 4
# Method in brief: as §1
# [10] = test system: pigweed (Amaranthus retroflexus); test: Postemergence herbicidal activity; format: in vivo; details: Table 4
# Method in brief: as §1
# [11] = test system: wheat (Triticum aestivum); test: Postemergence herbicidal activity, selectivity to wheat; format: in vivo; details: Table 5, crop (wheat)
# Procedure: as §2
# A weighed amount, determined by the highest rate to be tested, of each test compound was placed in a 20 mL glass vial and was dissolved in 4 mL of a 97:3 v/v (volume/volume) mixture of acetone and dimethyl sulfoxide (DMSO) to obtain concentrated stock solutions. […] The concentrated stock solutions obtained were diluted with an aqueous mixture containing acetone, water, isopropyl alcohol, DMSO, Atplus 411F crop oil concentrate, and Triton X-155 surfactant in a 48.5:39:10:1.5:1.0:0.02 v/v ratio to obtain spray solutions of known concentration. The solutions containing the highest concentration to be tested were prepared by diluting 2 mL aliquots of the stock solution with 13 mL of the mixture and lower concentrations were prepared by serial dilution of the stock solution. Approximately 1.5 mL aliquots of each solution of known concentration were sprayed evenly onto each of the test plant pots using a DeVilbiss atomizer driven by compressed air pressure of 2 to 4 psi ([…]) to obtain thorough coverage of each plant. Control plants were sprayed in the same manner with the aqueous mixture. In this test an application rate of 1 ppm results in the application of approximately 1 g/Ha.
# as §4
# [12] = test system: lambsquarters (Chenopodium album); test: Postemergence herbicidal activity; format: in vivo; details: Table 5
# Method in brief: as §1
# [13] = test system: broadleaf dock (Rumex obtusifolia); test: Range & Pasture Crop Testing (postemergence track sprayer); format: in vivo; details: Table 9; rate 70 g/Ha; 3 weeks after treatment
# Procedure: (§6) Rates are calculated based upon 5 doses being applied. The high rate (X), followed by serial dilutions of 1/2×, 1/4×, 1/8× and 1/16×. Compound requirements are based upon the 187 L/ha carrier volume, specifications of the delivery system (Mandel track sprayer) and generating 24 mL of technical spray material to allow for the dilutions and overage in the sprayer. [formula]
# (§7) All technical materials were formulated in 97:3 (acetone:DMSO) with 0.25% X-77. The total volume of solvent is maintained at less than 7%. An overhead Mandel track sprayer calibrated to deliver 187 L/ha was used for all treatment applications (postemergence). Picloram was included as a comparison treatment.
# (§8) Solutions were applied with a mechanized track-sprayer at the following settings:
# (§9) Spray height: 17 inches above top of plants
# (§10) This provides an application volume of 187 L/ha.
# (§11) Percent weed control (burn down) was evaluated 3 weeks after treatment. Visual control on a 0-100 linear scale was used, with 0 representing no control and 100 representing total control. Burn down ratings were taken for annual and perennial weed species.
# [14] = test system: crested wheatgrass (Agropyron cristatum) (grass crop); test: as above; format: in vivo; details: Table 9, rate 70 g/Ha, 3 weeks after treatment
# Procedure: as §6, §7, §8, §9, §10, §11
# [15] = test system: Canada thistle (Cirsium arvense); test: as above; format: in vivo
# Procedure: (§12) By applying the well-accepted probit analysis as described by J. Berkson in Journal of the […], 48, 565 (1953) and by D. Finney in “Probit Analysis” Cambridge University Press (1952), the above data can be used to calculate GR50 and GR80 values, which are defined as growth reduction factors that correspond to the effective dose of herbicide required to kill or control 50 percent or 80 percent, respectively, of a target plant.
# as §6, §7, §8, §9, §10, §11
# [16] = test system: field bindweed (Convolvulus arvensis); test: as above; format: in vivo; details: Table 10; clover pasture; postemergence
# Procedure: as §12, §6, §7, §8, §9, §10, §11
# [17] = test system: White Clover (Trifolium repens); test: as above; format: in vivo; details: Table 10
# Procedure: as §12, §6, §7, §8, §9, §10, §11
SMILES,melting point,pest or weed control at 125 ppm [1],pest or weed control at 125 ppm ([3]; rate 125 ppm),pest or weed control at 125 ppm [5],pest or weed control at 560 ppm [6],pest or weed control at 560 ppm [7],pest or weed control at 560 ppm [8],pest or weed control at 250 ppm ([1]; rate 250 ppm),pest or weed control at 250 ppm ([3]; rate 250 ppm),pest or weed control at 250 ppm ([5]; rate 250 ppm),further results
"Nc1c(F)c(C(=O)O)nc(Cl)c1Cl [Compound 43, 4-Amino-5,6-dichloro-3-fluoropyridine-2-carboxylic acid]",208 °C (dec.),60%,90%,85%,,,,,,,Post-emergent Evaluation - % control ZEAMX (corn (Zea mays); rate 250 ppm): 0%; Post-emergent Evaluation - % control ABUTH ([9]; rate 250 ppm): 70%; Post-emergent Evaluation - % control AMARE ([10]; rate 250 ppm): 90%; Post-emergent Evaluation - % control XANST ([3]; rate 250 ppm): 85%; pest or weed control at 140 ppm [6]: 70%; pest or weed control at 140 ppm [7]: 30%; pest or weed control at 140 ppm [8]: 80%
"COc1c(N)cc(Br)nc1C(=O)O [Compound 41, 4-Amino-6-bromo-3-methoxypyridine-2-carboxylic acid]",,100%,80%,90%,,,,,,,Post-emergent Evaluation - % control TRZAS ([11]; rate 250 ppm): 10%; Post-emergent Evaluation - % control POLCO ([1]; rate 250 ppm): 100%; Post-emergent Evaluation - % control CHEAL ([12]; rate 250 ppm): 90%; Post-emergent Evaluation - % control STEME ([5]; rate 250 ppm): 20%; pest or weed control at 280 ppm [6]: 85%; pest or weed control at 280 ppm [7]: 40%; pest or weed control at 280 ppm [8]: 90%
"Nc1c(Cl)c(C(=O)O)nc(Cl)c1Br [Compound 20, 4-Amino-3,6-dichloro-5-bromopyridine-2-carboxylic acid]",201 to 202 °C,,,,100%,100%,100%,50%,85%,90%,Post-emergent Evaluation - % control ZEAMX (corn (Zea mays); rate 250 ppm): 10%; Post-emergent Evaluation - % control ABUTH ([9]; rate 250 ppm): 70%; Post-emergent Evaluation - % control AMARE ([10]; rate 250 ppm): 90%; Post-emergent Evaluation - % control XANST ([3]; rate 250 ppm): 85%
"Nc1cc(C(F)(F)F)nc(C(=O)O)c1Cl [Compound 46, 4-Amino-3-chloro-6-trifluoromethylpyridine-2-carboxylic acid]",131 to 133 °C,,,,,,,100%,90%,60%,Post-emergent Evaluation - % control TRZAS ([11]; rate 31 ppm): 10%; Post-emergent Evaluation - % control POLCO ([1]; rate 31 ppm): 100%; Post-emergent Evaluation - % control CHEAL ([12]; rate 31 ppm): 100%; Post-emergent Evaluation - % control STEME ([5]; rate 31 ppm): 50%; pest or weed control at 140 ppm [6]: 100%; pest or weed control at 140 ppm [7]: 95%; pest or weed control at 140 ppm [8]: 95%
"CCCCOC(=O)c1nc(Cl)cc(N)c1Cl [Compound 7, n-butyl 4-amino-3,6-dichloropyridine-2-carboxylate]",78 to 79 °C,,,,,,,100%,100%,100%,"GR80 CONAR [16]: 116.6 g/ha; GR80 CIRAR ([15]; Table 10, clover pasture, postemergence): 17.3 g/ha; GR20 TRFRE [17]: 15.3 g/ha; pest or weed control at 280 ppm [6]: 100%; pest or weed control at 280 ppm [7]: 100%; pest or weed control at 280 ppm [8]: 100%"

# Continued, in another order:
melting point,SMILES,pest or weed control at 125 ppm [1],pest or weed control at 125 ppm ([3]; rate 125 ppm),pest or weed control at 125 ppm [5],pest or weed control at 560 ppm [6],pest or weed control at 560 ppm [7],pest or weed control at 560 ppm [8],pest or weed control at 250 ppm ([1]; rate 250 ppm),pest or weed control at 250 ppm ([3]; rate 250 ppm),pest or weed control at 250 ppm ([5]; rate 250 ppm),further results
136 to 137 °C,"CCNc1cc(Cl)nc(C(=O)O)c1Cl [Compound 27, 4-N-ethylamino-3,6-dichloropyridine-2-carboxylic acid]",90%,85%,100%,100%,100%,100%,,,,post emergent evaluation - % control CYPES [2]: 50%; post emergent evaluation - % control ECHCG [4]: 70%; post emergent evaluation - % control ORYZA (rice (Oryza sativa)): 40%
110 °C,"CN(C)c1cc(Cl)nc(C(=O)O)c1Cl [Compound 33, 4-N,N-dimethylamino-3,6-dichloropyridine-2-carboxylic acid]",,,,100%,100%,98%,100%,100%,100%,Post-emergent Evaluation - % control ZEAMX (corn (Zea mays); rate 125 ppm): 20%; Post-emergent Evaluation - % control ABUTH ([9]; rate 125 ppm): 80%; Post-emergent Evaluation - % control AMARE ([10]; rate 125 ppm): 50%; Post-emergent Evaluation - % control XANST ([3]; rate 125 ppm): 100%
170 to 172 °C,"CNc1cc(Cl)nc(C(=O)O)c1Cl [Compound 26, 4-N-Methylamino-3,6-dichloropyridine-2-carboxylic acid]",95%,90%,90%,100%,100%,100%,,,,"Post-emergent Evaluation - % control RUMOB [13]: 100%; Post-emergent Evaluation - % control AGRCR [14]: 10%; Post-emergent Evaluation - % control CIRAR ([15]; Table 9, rate 70 g/Ha, 3 weeks after treatment): 90%"

# Source: patent US20010047099A1, “4-aminopicolinates and their use as herbicides” (priority 2000, published 2001)
